Reference: patent publication US9499486B2, “Kinase inhibitor” (RESPIVERT LIMITED, priority 2014, dated 2016)

Experiments:
Syk [1] = target: T1, Syk (Homo sapiens (Human), UniProt P43405); test: KINOMEscan dissociation constant, Syk; assay type: binding
From the text: (§1) These assays may be conducted by DiscoverX (formerly Ambit; San Diego, Calif.).

[2] = target: human ether a go-go (hERG) channel (Homo sapiens (Human), UniProt Q12809); test: hERG inhibition, IonWorks patch clamp electrophysiology; assay type: cell-based; settings: IonWorks patch clamp
human ether a go-go (hERG) channel, sequence (Q12809 whole entry): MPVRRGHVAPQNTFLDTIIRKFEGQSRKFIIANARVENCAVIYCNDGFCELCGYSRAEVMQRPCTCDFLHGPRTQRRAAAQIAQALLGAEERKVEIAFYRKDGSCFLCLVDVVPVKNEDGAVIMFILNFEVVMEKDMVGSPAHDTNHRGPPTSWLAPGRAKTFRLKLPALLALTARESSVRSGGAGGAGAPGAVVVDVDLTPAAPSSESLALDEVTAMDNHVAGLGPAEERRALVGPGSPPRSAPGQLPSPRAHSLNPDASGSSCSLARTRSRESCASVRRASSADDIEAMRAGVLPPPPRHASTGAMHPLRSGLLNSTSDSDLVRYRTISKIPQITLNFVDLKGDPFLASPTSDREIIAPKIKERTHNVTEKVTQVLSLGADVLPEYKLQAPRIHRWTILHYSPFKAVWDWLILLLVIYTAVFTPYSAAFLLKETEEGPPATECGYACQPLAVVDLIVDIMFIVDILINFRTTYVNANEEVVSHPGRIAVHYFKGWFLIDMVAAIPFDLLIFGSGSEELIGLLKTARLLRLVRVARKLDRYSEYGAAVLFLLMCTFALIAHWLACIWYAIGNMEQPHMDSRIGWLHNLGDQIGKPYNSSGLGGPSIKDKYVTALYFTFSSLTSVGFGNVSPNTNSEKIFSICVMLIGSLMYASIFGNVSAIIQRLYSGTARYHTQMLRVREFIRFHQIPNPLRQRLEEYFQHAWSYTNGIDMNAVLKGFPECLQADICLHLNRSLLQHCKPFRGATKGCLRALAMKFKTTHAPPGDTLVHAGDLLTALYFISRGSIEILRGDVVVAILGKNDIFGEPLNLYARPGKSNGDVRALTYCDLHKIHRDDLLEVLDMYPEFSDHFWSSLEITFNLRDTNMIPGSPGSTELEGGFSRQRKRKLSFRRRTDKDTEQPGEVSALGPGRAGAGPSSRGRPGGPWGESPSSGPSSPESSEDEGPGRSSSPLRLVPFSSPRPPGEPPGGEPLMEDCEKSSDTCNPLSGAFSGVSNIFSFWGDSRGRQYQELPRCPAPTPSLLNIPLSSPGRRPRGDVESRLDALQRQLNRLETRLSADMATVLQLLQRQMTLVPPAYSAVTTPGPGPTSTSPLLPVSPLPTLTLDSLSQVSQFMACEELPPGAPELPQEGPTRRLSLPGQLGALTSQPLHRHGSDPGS
Experimental: (§2) The compound of the invention was tested for inhibition of the human ether a go-go (hERG) channel using IonWorks™ patch clamp electrophysiology at Essen Bioscience (Welwyn Garden City, England).

hERG = hERG (Homo sapiens (Human), UniProt Q12809); test: as above; assay type: cell-based; settings: human; Top Concentration 3 μM
hERG, sequence (Q12809 whole entry): as above
Experimental: as §2

Syk [3] = target: T1, Syk; test: Syk enzyme inhibition, Z-LYTE FRET; assay type: biochemical
Experimental: (§3) The enzyme inhibitory activities of the compound disclosed herein are determined by FRET using synthetic peptides labelled with both donor and acceptor fluorophores (Z-LYTE, Invitrogen Ltd., Paisley, UK).
The inhibitory activities of the compound of the invention against c-Src and Syk enzymes (Invitrogen), are evaluated in a similar fashion to that described hereinabove. The relevant enzyme (3000 ng/mL or 2000 ng/mL respectively, 2.5 μL) is incubated with the test compound (either 1 μg/mL, 0.1 μg/mL, 0.01 μg/mL, or 0.001 μg/mL, 2.5 μL each) for 2 hr at RT. The FRET peptides (8 μM, 2.5 μL), and appropriate ATP solutions (2.5 μL, 800 μM for c-Src, and 60 μM ATP for Syk) are then added to the enzymes/compound mixtures and the mixture incubated for 1 hr. Development reagent (protease, 5 μL) is added for 1 hr prior to detection in a fluorescence microplate reader (Varioskan® Flash, ThermoFisher Scientific).
(§4) In all cases, the site-specific protease cleaves non-phosphorylated peptide only and eliminates the FRET signal. Phosphorylation levels of each reaction are calculated using the ratio of coumarin emission (donor) over fluorescein emission (acceptor), for which high ratios indicate high phosphorylation and low ratios indicate low phosphorylation levels.

GSK3α = GSK3α (Homo sapiens (Human), UniProt P49840); test: GSK3α enzyme inhibition (Method 2), Z-LYTE FRET; assay type: biochemical
GSK3α, sequence (P49840 whole entry): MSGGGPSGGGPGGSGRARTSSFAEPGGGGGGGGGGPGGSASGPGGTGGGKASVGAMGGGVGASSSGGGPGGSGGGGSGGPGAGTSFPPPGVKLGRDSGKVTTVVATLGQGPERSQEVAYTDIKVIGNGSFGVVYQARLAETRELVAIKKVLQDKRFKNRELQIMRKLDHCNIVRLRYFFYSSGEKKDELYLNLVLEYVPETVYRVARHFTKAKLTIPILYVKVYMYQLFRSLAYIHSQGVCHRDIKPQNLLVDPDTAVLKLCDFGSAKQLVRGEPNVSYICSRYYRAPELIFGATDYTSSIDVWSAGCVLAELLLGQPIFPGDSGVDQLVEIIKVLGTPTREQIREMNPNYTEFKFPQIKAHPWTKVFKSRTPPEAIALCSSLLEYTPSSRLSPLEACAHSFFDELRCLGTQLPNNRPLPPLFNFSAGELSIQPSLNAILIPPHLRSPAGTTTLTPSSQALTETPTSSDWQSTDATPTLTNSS
Experimental: as §3
The inhibitory activities of the compound of the invention against the GSK 3α enzyme isoform (Invitrogen), are evaluated by determining the level of activation/phosphorylation of the target peptide. The GSK3-α protein (500 ng/mL, 2.5 μL) is mixed with the test compound (2.5 μL at either 4 μg/mL, 0.4 μg/mL, 0.04 μg/mL, or 0.004 μg/mL) for 2 hr at RT. The FRET peptide (8 μM, 2.5 μL), which is a phosphorylation target for GSK3α, and ATP (40 μM, 2.5 μL) are then added to the enzyme/compound mixture and the resulting mixture incubated for 1 hr. Development reagent (protease, 5 μL) is added for 1 hr prior to detection in a fluorescence microplate reader (Varioskan® Flash, ThermoFisher Scientific).
as §4, with “levels. […]” for “levels.”

PBMCs = test: Cell mitosis assay (assay g); assay type: cell-based, human
Experimental: Peripheral blood mononucleocytes (PBMCs) from healthy subjects are separated from whole blood (Quintiles, London, UK) using a density gradient (Histopaque-1077, Sigma-Aldrich, Poole, UK). The PBMCs (3 million cells per sample) are subsequently treated with 2% PHA (phytohaemagglutinin, Sigma-Aldrich, Poole, UK) for 48 hr, followed by a 20 hr exposure to varying concentrations of test compounds. At 2 hr before collection, PBMCs are treated with demecolcine (0.1 μg/mL; Invitrogen, Paisley, UK) to arrest cells in metaphase. To observe mitotic cells, PBMCs are permeabilised and fixed by adding Intraprep (50 μL; Beckman Coulter, France), and stained with anti-phospho-histone 3 (0.26 ng/L; #9701; Cell Signalling, Danvers, Mass.) and propidium iodide (1 mg/mL; Sigma-Aldrich, Poole, UK) as previously described (Muehlbauer P. A. and Schuler M. J., Mutation Research, 2003, 537:117-130). Fluorescence is observed using an ATTUNE flow cytometer (Invitrogen, Paisley, UK), gating for lymphocytes.

Lck = Lck (Homo sapiens (Human), UniProt P06239); test: KINOMEscan dissociation constant, Lck; assay type: binding
Lck, sequence (P06239 whole entry): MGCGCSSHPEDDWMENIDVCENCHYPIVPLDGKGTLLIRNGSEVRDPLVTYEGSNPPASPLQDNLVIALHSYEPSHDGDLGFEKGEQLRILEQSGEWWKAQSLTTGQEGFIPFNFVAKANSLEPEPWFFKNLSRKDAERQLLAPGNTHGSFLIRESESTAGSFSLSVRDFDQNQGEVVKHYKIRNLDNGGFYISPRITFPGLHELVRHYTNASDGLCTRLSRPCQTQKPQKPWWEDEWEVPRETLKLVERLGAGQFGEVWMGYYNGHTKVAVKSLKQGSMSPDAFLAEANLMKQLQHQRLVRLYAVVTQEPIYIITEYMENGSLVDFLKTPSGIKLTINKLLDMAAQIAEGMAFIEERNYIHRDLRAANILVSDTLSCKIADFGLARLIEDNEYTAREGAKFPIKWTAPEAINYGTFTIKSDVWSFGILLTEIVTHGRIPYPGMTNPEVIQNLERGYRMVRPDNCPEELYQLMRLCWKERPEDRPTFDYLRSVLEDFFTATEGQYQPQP
From the text: as §1

p38 MAPKα = p38 MAPKα (Homo sapiens (Human), UniProt Q16539); test: p38 MAPKα enzyme inhibition (Method 2), Z-LYTE FRET; assay type: biochemical
p38 MAPKα, sequence (Q16539 whole entry, looked up): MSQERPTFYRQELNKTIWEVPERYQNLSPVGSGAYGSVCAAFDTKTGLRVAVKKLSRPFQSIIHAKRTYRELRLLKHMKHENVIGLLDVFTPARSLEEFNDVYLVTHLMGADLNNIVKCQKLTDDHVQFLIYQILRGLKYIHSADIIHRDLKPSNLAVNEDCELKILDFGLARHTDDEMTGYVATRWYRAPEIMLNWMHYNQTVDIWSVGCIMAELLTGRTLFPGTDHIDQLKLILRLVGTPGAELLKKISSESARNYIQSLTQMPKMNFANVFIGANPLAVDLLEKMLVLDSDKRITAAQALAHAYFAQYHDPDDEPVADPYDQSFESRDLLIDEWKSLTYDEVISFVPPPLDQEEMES
Experimental: as §3
The inhibitory activities of test compounds against the p38 MAPKα isoform (MAPK14: Invitrogen) are evaluated indirectly by determining the level of activation/phosphorylation of the down-stream molecule, MAPKAP-K2. The p38 MAPKα protein (80 ng/mL, 2.5 μL) is mixed with the test compound (2.5 μL of either 4 μg/mL, 0.4 μg/mL, 0.04 μg/mL or 0.004 μg/mL) for 2 hr at RT. […] The mixture is incubated for 1 hr at RT. Development reagent (protease, 5 μL) is added for 1 hr prior to detection in a fluorescence microplate reader (Varioskan® Flash, ThermoFisher Scientific). […]
as §4

[4] = Stability of pharmaceutical formulations (1 mg/mL solutions); assay type: physicochemical; settings: 5° C.
Experimental: The samples were sonicated to achieve clear solutions having the following properties: Osmolality (mOsm/kg): 310 (Na), 314 (HCl); pH: 7.00 (Na), 7.05 (HCl). 0.5 mL of the stock solutions were diluted to 1 mL with 20% DMSO in water & injected for purity analysis by HPLC. The remaining stock solutions were then split into aliquots of 0.5 mL in HPLC vials, and stored at various conditions in duplicate. Samples were stored at 5 and 25° C., before being analysed by HPLC at 1, 2 and 4 weeks. Separate samples were stored at 40° C. and analysed at 4 weeks.

[5] = Systemic pharmacokinetics and total colon tissue distribution after single oral administration; assay type: in vivo, mouse; settings: mice, single oral administration
Experimental: Studies were conducted by Sai Life Sciences (Hinjewadi, Pune, India) to investigate the systemic pharmacokinetics and total colon tissue distribution of the compound of the invention. In particular, pharmacokinetic studies were carried out in male C57BL/6 mice following a single oral administration of the compound.

COc1cc(Nc2cc(Oc3ccc(NC(=O)Nc4cc(C(C)(C)C)cc(NS(C)(=O)=O)c4OC)c4ccccc34)ccn2)ccc1C(=O)O [Example 1, 4-((4-((4-(3-(5-(tert-Butyl)-2-methoxy-3-(methylsulfonamido)phenyl)ureido)naphthalen-1-yl)oxy)pyridin-2-yl)amino)-2-methoxybenzoic acid]
Kd (Syk [1]): 7.1 nM | IC50 [2]: > 3300 nM | inhibition at 3 µM (hERG): -4% | IC50 (Syk [3]): 5 nM | IC50 (GSK3α): 115 nM | impact on cell division (mitosis) in PBMCs compared with Reference Compound (PBMCs): markedly less active than the Reference Compound | Kd (Lck): 4.2 nM | IC50 (p38 MAPKα): 11 nM | stability in solution [4]: stable | systemic plasma or blood exposures [5]: very low or negligible
